The source of these data is publication PMC8482771 (ACS Omega, 2021).

Molecules are shown by their SMILES. Like-named read-outs stand apart in the source and are kept apart here. Where only a bound is given, the exact number is not on record here.

Common to all, as to format: cell-based
A short description of series [1]: Cytotoxicity assay. To be noted: human, nontransfected 1321N1 astrocytoma cells.
Series [2] deals with T1, h-P2X2R (Homo sapiens, UniProt Q9UBL9).
T1 sequence (Q9UBL9 1-471): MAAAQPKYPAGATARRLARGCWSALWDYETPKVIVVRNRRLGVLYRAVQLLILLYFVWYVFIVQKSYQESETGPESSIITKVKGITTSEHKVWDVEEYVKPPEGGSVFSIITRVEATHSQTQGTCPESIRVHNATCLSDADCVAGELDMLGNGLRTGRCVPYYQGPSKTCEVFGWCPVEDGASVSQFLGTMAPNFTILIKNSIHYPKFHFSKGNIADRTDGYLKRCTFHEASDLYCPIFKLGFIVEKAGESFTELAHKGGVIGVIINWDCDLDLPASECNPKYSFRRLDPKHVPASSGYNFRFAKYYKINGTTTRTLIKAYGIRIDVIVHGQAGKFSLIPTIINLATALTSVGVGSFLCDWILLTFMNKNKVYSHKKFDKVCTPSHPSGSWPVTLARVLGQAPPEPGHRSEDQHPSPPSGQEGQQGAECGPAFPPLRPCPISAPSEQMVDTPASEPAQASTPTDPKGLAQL
As to the kind of experiment: Ca2+ influx assay. The note with it: for inhibition at 50 µM: 1321-N1, read-out: h-P2X2 % inhibition; for activity against h-P2X2 receptor (in words): SAR statement.

Series [3] addresses T2, h-P2X4R (Homo sapiens, UniProt Q99571).
T2 sequence (Q99571 1-388): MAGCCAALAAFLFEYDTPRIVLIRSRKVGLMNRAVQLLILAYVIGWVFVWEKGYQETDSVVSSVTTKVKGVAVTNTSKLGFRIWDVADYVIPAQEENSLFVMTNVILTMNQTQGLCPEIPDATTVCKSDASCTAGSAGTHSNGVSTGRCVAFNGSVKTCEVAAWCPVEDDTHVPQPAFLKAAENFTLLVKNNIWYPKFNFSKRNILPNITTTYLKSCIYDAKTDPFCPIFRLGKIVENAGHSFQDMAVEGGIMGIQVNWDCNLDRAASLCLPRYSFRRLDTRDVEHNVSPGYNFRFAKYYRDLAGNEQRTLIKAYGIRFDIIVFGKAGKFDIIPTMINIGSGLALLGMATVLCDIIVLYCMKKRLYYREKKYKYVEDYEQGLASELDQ
As to the kind of experiment: Ca2+ influx assay. To be noted: for inhibition at 50 µM: 1321-N1, read-out: h-P2X4 % inhibition.

Series [4] addresses T3, h-P2X7R (Homo sapiens, UniProt Q99572).
T3 sequence (Q99572 1-595): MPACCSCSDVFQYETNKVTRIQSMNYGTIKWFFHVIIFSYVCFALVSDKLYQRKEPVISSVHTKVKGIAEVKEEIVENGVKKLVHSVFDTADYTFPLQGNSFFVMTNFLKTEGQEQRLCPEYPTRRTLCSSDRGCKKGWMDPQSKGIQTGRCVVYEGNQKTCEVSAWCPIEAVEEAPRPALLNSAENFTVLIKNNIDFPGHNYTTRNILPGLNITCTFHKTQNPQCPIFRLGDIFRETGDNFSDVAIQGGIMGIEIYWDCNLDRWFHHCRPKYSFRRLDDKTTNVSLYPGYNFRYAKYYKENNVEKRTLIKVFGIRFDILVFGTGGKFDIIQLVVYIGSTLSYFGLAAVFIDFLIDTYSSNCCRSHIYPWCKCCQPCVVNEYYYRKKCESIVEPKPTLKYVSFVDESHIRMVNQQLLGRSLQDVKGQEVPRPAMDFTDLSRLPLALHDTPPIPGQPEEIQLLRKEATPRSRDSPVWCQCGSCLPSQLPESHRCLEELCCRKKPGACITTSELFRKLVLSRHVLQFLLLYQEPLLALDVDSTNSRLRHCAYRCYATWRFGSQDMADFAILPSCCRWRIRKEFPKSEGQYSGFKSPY
As to the kind of experiment: Ca2+ influx assay. To be noted: for inhibition at 50 µM: 1321-N1, read-out: h-P2X7 % inhibition.

Series [5] concerns the target h-P2X5 receptor (Homo sapiens, UniProt Q93086). As to the kind of experiment: Ca2+ influx assay. To be noted: for inhibition at 50 µM: 1321-N1, read-out: h-P2X5 % inhibition.

h-P2X5 receptor, sequence (Q93086 whole entry): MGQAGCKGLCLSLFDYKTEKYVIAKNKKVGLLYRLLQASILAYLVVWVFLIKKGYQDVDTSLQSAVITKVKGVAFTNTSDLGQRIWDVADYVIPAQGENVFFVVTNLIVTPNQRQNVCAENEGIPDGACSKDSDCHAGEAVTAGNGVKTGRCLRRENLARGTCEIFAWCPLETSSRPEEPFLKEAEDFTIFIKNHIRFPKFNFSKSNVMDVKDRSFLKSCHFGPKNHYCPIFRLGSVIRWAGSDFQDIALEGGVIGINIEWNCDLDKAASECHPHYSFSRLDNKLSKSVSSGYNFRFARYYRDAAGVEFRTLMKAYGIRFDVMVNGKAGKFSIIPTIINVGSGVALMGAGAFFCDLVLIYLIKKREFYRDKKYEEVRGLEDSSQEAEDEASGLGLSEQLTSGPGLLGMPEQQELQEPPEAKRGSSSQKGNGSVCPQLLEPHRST

For the compound `CC(=NNC(=O)c1ccccc1NS(C)(=O)=O)c1ccccc1` [6a, N-(2-(2-(1-Phenylethylidene)hydrazinecarbonyl)phenyl)methanesulfonamide], in series [1], the cytotoxicity at 24 h, 50 µM was found to be 14 ± 0.21%. For the same compound, the IC50 (in general, the concentration needed to halve the response being measured) in series [2] is above 50 µM; in series [3], above 50 µM; in series [4], 4.21 ± 0.01 µM; in series [5], above 50 µM. Also, the inhibition (usually how much of the control response was suppressed) at 50 µM in series [2] was 20%; in series [3] it was 46%; in series [5] it was 20%.
Regarding `CC(=NNC(=O)c1ccccc1NS(C)(=O)=O)c1ccccc1F` [6b, N-(2-(2-(1-(2-Fluorophenyl)ethylidene)hydrazinecarbonyl)phenyl)methanesulfonamide], the cytotoxicity at 24 h, 50 µM in series [1] worked out at 11.4 ± 0.57%. In addition, the IC50 is 1.91 ± 0.03 µM in series [2], above 50 µM in series [3] and above 50 µM in series [5]. Also, the values for the inhibition at 50 µM in series [3] and in series [5] were 40% and 16%, respectively.
In series [1], `CC(=NNC(=O)c1ccccc1NS(C)(=O)=O)c1cccc(Br)c1` [6c, N-(2-(2-(1-(3-Bromophenyl)ethylidene)hydrazinecarbonyl)phenyl)methanesulfonamide] displayed a cytotoxicity at 24 h, 50 µM of 15.1 ± 0.44%. The IC50 in series [2] was above 50 µM; in series [3], above 50 µM; in series [4] it was 5.54 ± 0.05 µM; in series [5], above 50 µM. Besides, the inhibition at 50 µM turned out to be 0% in series [2], 24% in series [3] and 0% in series [5]. In series [2], the “activity against h-P2X2 receptor (in words)” value was “loss of activity”.
On to `CC(=NNC(=O)c1ccccc1NS(C)(=O)=O)c1ccc(Cl)cc1` [6d, N-(2-(2-(1-(4-Chlorophenyl)ethylidene)hydrazinecarbonyl)phenyl)methanesulfonamide], for which the cytotoxicity at 24 h, 50 µM in series [1] stood at 6.96 ± 0.8%. In addition, the IC50 in series [2], in series [3], in series [4] and in series [5] was above 50 µM each time. The inhibition at 50 µM turned out to be 15% in series [2], 18% in series [3], 48% in series [4] and 42% in series [5]. Besides, in series [2], the “activity against h-P2X2 receptor (in words)” value is reported as “loss of activity”.
As for `CC(=NNC(=O)c1ccccc1NS(C)(=O)=O)c1ccc(Br)cc1` [6e, N-(2-(2-(1-(4-Bromophenyl)ethylidene)hydrazinecarbonyl)phenyl)methanesulfonamide], in series [1], the cytotoxicity at 24 h, 50 µM is 16.8 ± 1.1%. Moreover, the IC50 in series [2] was 3.22 ± 0.05 µM; in series [3] it was above 50 µM; in series [4], above 50 µM; in series [5], above 50 µM. The inhibition at 50 µM in series [3] is 0%; in series [4], 34%; in series [5], 10%.
In the case of `CC(=NNC(=O)c1ccccc1NS(C)(=O)=O)c1ccc(I)cc1` [6f, N-(2-(2-(1-(4-Iodophenyl)ethylidene)hydrazinecarbonyl)phenyl)methanesulfonamide], the cytotoxicity at 24 h, 50 µM in series [1] is 8.31 ± 0.33%. For the same compound, the IC50 in series [2] was 3.52 ± 0.07 µM; in series [3] it was above 50 µM; in series [4], 10.01 ± 0.07 µM; in series [5], above 50 µM. The figures for the inhibition at 50 µM in series [3] and in series [5] were 32% and 21%, respectively.
As to `COc1ccc(C(C)=NNC(=O)c2ccccc2NS(C)(=O)=O)cc1` [6g, N-(2-(2-(1-(4-Methoxyphenyl)ethylidene)hydrazinecarbonyl)phenyl)methanesulfonamide], in series [1], the cytotoxicity at 24 h, 50 µM worked out at 5.29 ± 0.72%. Moreover, the IC50 is 3.48 ± 0.04 µM in series [2], above 50 µM in series [3], 2.09 ± 0.13 µM in series [4] and above 50 µM in series [5]. Also, the results for the inhibition at 50 µM in series [3] and in series [5] were 45% and 26%, respectively.
Compound `CC(=NNC(=O)c1ccccc1NS(C)(=O)=O)c1cccs1` [7a, N-(2-(2-(1-(Thiophen-2-yl)ethylidene)hydrazinecarbonyl)phenyl)methanesulfonamide] returned a cytotoxicity at 24 h, 50 µM in series [1] of 11.6 ± 0.89%. Further, the IC50 in series [2] was 1.57 ± 0.01 µM; in series [3], above 50 µM; in series [4], above 50 µM; in series [5], above 50 µM. Also, the inhibition at 50 µM amounted to 24% in series [3], 45% in series [4] and 29% in series [5]. Also, the “activity against h-P2X4 receptor (in words)” value in series [3] (SAR statement) is “inactive”.
The compound `CC(=NNC(=O)c1ccccc1NS(C)(=O)=O)c1sccc1C` [7b, N-(2-(2-(1-(3-Methylthiophen-2-yl)ethylidene)hydrazinecarbonyl)phenyl)methanesulfonamide] had a cytotoxicity at 24 h, 50 µM in series [1] of 10.7 ± 0.54%. In addition, the IC50 in series [2] is 1.8 ± 0.02 µM; in series [3], above 50 µM; in series [4], above 50 µM; in series [5], above 50 µM. Also, the values for the inhibition at 50 µM in series [3], in series [4] and in series [5] were 8%, 47% and 12%, respectively.
Consider `CC(=NNC(=O)c1ccccc1NS(C)(=O)=O)c1cc(C)cs1` [7c, N-(2-(2-(1-(4-Methylthiophen-2-yl)ethylidene)hydrazinecarbonyl)phenyl)methanesulfonamide], for which the cytotoxicity at 24 h, 50 µM in series [1] is 5.98 ± 0.09%. Also, the IC50 in series [2] is 1.59 ± 0.01 µM; in series [3], 3.89 ± 0.05 µM; in series [4], 8.94 ± 0.01 µM; in series [5], above 50 µM. For the same compound, in series [5], the inhibition at 50 µM was 31%.
Take `CC(=NNC(=O)c1ccccc1NS(C)(=O)=O)c1ccc(C)s1` [7d, N-(2-(2-(1-(5-Methylthiophen-2-yl)ethylidene)hydrazinecarbonyl)phenyl)methanesulfonamide]: the cytotoxicity at 24 h, 50 µM in series [1] was found to be 1.57 ± 0.11%. Besides, the IC50 is 2.03 ± 0.04 µM in series [2], 3.21 ± 0.01 µM in series [3], 4.53 ± 0.11 µM in series [4] and above 50 µM in series [5]. Moreover, the inhibition at 50 µM in series [5] was found to be 46%.
Turning to `CC(=NNC(=O)c1ccccc1NS(C)(=O)=O)c1ccc(Cl)s1` [7f, N-(2-(2-(1-(5-Chlorothiophen-2-yl)ethylidene)hydrazinecarbonyl)phenyl)methanesulfonamide], the cytotoxicity at 24 h, 50 µM in series [1] came out at 11.6 ± 0.26%. The 50% inhibitory concentration (IC50) in series [2] is above 50 µM; in series [3], 4.03 ± 0.07 µM; in series [4] it was 1.16 ± 0.03 µM; in series [5], above 50 µM. In addition, the values for the inhibition at 50 µM in series [2] and in series [5] were 37% and 0%, respectively.
Consider `CC(=NNC(=O)c1ccccc1NS(C)(=O)=O)c1ccc([N+](=O)[O-])s1` [7g, N-(2-(2-(1-(5-Nitrothiophen-2-yl)ethylidene)hydrazinecarbonyl)phenyl)methanesulfonamide], for which, in series [1], the cytotoxicity at 24 h, 50 µM is 23.8 ± 2.15%. The IC50 in series [2] is above 50 µM; in series [3], 2.44 ± 0.1 µM; in series [4] it was 6.8 ± 0.21 µM; in series [5], above 50 µM. The inhibition at 50 µM worked out at 26% in series [2] and 19% in series [5].
As for `Nc1c(S(=O)(=O)O)cc(Nc2ccc(Nc3nc(Cl)nc(Nc4cccc(S(=O)(=O)O)c4)n3)c(S(=O)(=O)O)c2)c2c1C(=O)c1ccccc1C2=O` [RB-2, Reactive Blue 2, reference compound], the results for the IC50 in series [2] and in series [4] were 0.89 ± 0.41 µM and 2.79 ± 0.22 µM, respectively.
For `Cc1ccc(C(=O)Nc2ccc(S(=O)(=O)O)c3cc(S(=O)(=O)O)cc(S(=O)(=O)O)c23)cc1NC(=O)c1cccc(NC(=O)Nc2cccc(C(=O)Nc3cc(C(=O)Nc4ccc(S(=O)(=O)O)c5cc(S(=O)(=O)O)cc(S(=O)(=O)O)c45)ccc3C)c2)c1` [Suramin, reference compound], in series [5] (read-out: h-P2X5 IC50 ± SEM, Ca2+ influx, ATP at EC80, n = 3), the IC50 was 16.1 ± 0.5 µM.
